What is called EC50 is the concentration at which the effect is half-maximal.

The structures appear in SMILES notation. “And” between values parts separate entries of the source, which are not always exact repeats. Equal values may be shown once. Read-outs that look alike come from different tables or passages of the source. Bounds are passed on as bounds.

These results are taken from PMC11876601 (Molecular Systems Biology, 2025).

Test [1] deals with T1, ATR (Homo sapiens, UniProt Q13535).
T1 construct: endogenous in cells; host or cells: AsPC-1 lysate
T1 sequence (Q13535 whole entry): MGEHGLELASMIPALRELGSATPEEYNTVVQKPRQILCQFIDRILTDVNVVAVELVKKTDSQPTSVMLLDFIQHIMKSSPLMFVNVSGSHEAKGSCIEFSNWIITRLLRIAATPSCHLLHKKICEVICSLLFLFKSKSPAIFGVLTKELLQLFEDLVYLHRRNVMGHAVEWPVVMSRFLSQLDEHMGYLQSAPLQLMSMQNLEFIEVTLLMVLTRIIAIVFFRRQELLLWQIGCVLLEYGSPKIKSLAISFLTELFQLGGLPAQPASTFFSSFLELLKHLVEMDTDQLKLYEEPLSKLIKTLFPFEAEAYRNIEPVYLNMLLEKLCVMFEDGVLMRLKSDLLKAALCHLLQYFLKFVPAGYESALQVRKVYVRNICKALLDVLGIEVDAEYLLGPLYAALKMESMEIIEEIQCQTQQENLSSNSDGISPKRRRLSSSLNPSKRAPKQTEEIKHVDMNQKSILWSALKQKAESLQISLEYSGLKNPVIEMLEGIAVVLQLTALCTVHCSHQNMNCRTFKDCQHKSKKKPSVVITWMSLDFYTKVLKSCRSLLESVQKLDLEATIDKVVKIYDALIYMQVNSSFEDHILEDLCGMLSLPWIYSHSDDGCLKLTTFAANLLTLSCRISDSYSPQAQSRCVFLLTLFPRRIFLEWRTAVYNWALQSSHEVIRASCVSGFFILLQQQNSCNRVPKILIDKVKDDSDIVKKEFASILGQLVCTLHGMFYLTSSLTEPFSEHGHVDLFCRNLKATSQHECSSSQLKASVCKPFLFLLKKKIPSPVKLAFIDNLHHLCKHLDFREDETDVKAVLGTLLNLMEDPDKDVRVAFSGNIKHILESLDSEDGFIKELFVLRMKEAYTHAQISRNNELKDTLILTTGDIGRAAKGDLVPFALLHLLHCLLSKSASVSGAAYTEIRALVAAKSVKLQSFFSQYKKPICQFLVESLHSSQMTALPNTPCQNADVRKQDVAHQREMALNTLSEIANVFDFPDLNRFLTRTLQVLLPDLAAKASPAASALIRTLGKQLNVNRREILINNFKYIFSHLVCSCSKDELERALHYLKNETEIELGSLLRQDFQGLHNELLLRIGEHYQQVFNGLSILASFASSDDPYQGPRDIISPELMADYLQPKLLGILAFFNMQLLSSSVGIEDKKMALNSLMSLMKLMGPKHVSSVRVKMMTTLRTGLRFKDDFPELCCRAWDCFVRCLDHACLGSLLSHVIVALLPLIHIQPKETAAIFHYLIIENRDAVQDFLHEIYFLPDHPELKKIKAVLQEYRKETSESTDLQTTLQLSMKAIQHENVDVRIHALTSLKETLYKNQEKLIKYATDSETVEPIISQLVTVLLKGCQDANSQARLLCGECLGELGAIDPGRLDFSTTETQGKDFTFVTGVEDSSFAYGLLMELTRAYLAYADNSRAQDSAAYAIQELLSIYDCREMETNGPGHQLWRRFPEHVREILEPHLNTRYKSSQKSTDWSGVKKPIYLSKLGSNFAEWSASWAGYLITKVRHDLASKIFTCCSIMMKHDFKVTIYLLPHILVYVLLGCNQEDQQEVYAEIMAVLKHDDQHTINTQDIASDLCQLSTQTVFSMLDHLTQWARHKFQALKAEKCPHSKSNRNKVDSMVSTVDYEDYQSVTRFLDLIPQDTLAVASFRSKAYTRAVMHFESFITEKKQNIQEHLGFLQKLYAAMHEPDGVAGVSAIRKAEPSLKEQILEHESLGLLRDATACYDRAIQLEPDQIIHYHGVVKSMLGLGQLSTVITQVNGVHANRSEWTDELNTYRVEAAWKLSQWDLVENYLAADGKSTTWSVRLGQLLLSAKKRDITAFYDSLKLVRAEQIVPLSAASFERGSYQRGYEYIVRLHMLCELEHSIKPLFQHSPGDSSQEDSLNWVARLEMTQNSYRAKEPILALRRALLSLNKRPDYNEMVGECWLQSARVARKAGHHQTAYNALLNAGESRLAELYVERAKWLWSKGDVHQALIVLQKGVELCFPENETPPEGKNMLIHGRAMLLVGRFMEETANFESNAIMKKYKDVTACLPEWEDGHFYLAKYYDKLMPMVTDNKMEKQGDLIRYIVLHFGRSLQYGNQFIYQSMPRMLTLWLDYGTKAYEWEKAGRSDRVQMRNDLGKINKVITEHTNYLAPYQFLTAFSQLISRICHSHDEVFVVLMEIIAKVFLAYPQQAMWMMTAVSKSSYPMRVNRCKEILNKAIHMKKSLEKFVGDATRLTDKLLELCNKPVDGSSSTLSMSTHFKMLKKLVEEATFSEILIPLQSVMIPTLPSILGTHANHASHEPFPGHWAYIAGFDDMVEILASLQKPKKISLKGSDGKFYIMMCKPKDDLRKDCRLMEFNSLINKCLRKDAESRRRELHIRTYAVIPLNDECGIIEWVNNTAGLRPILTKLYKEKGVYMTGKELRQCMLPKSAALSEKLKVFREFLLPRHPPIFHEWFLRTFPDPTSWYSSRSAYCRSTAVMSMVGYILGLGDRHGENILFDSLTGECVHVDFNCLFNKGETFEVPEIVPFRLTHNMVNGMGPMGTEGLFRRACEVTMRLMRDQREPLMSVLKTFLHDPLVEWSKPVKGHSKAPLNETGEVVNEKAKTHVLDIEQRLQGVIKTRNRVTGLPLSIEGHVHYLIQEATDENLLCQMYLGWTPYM
T1 sequence (Q8WXE1 whole entry partner): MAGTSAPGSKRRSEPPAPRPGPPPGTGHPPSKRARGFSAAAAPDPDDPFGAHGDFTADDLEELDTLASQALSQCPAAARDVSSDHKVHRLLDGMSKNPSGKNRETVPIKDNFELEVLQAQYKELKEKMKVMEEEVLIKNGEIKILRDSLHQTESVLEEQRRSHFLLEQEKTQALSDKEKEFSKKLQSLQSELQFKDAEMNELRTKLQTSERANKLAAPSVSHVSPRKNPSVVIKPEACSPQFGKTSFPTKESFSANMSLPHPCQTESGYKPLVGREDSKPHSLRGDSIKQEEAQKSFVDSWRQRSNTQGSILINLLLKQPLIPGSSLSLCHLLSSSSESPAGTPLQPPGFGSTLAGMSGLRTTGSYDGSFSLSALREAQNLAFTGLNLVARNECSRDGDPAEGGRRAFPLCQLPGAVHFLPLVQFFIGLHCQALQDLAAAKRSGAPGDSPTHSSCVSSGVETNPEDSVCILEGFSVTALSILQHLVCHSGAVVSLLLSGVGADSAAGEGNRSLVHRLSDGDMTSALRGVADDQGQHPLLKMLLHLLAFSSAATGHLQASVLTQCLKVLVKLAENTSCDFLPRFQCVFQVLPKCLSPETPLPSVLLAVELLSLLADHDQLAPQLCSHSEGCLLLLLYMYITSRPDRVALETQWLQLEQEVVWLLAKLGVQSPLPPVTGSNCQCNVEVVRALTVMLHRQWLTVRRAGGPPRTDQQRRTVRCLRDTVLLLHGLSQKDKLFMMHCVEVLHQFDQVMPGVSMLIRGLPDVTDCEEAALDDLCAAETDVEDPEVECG
In words: Kinobeads competition pulldown in AsPC-1 lysate. The test is classed as binding. How it is done: This was followed by incubation with Kinobeads ε (17.5 µl of settled beads) for 30 min at 4 °C to enrich kinases. […] Enriched proteins were reduced with 50 mM DTT in 8 M urea, 40 mM Tris-HCl, pH 7.4 for 30 min at room temperature, and alkylated with 55 mM chloroacetamide. After reducing the urea concentration to 1–2 M, proteins were digested with trypsin at 37 °C for 16 h. Subsequently, eluted peptides were desalted using SepPak tC18 µElution plates (Waters), freeze-dried by vacuum centrifugation, and stored at −20 °C.
For LC-MS/MS, dried peptides were reconstituted in 0.1% formic acid and analyzed on a Dionex Ultimate3000 nano HPLC (Thermo Scientific) coupled to an Orbitrap Fusion Tribrid mass spectrometer (Thermo Scientific), which was run in data-dependent mode. Peptides were first delivered to a trap column (100 µm × 2 cm, packed in-house with Reprosil-Gold C18 ODS-3 5 µm resin, Dr. Maisch, Ammerbuch) and subsequently washed with solvent A0 (0.1% formic acid in HPLC grade water) at 5 µl/min for 10 min. […] For MS2, up to 12 peptide precursors were isolated (isolation width of 1.2 Th) and subjected to HCD fragmentation using 30% normalized collision energy. […] The duration of dynamic exclusion was set to 30 s.
Oxidized methionine and N-terminal acetylation were set as variable modification, and cysteine carbamidomethylation was set as fixed modification. Label-free quantification (LFQ) and match-between-runs were enabled. All searches were performed with 1% PSM and protein FDR.
Proteins were filtered by potential contaminants, reversed hits and proteins identified only by site. Residual binding of proteins was calculated from LFQ intensities as the ratio between drug doses and vehicle. […] Only kinases quantified with at least 4 unique peptides in the vehicle experiment were considered. Potential targets were further curated through manual inspection of dose-dependent reduction in MS/MS and unique peptide counts.

Test [2] has as its system CHEK1. The note with it: cited from earlier work; for Kd: read-out: KDapp.
The subject of test [3] is ABL1. Conditions: ABL1, 5 cell line mix lysate, Kinobeads ε, ref Reinecke et al. (2023), cited from earlier work.
The test system of test [4] is PTK2. Also on record: method as in Reinecke et al. (2023). The note with it: PTK2, 5 cell line mix lysate, Kinobeads ε, ref Reinecke et al. (2023), cited from earlier work.
In test [5] the test system is NUAK2. More on the design: method as in Reinecke et al. (2023). Conditions: NUAK2, 5 cell line mix lysate, Kinobeads ε, ref Reinecke et al. (2023), cited from earlier work.
Test [6] deals with ERN1. Conditions: cited from earlier work.
The test system of test [7] is MARK2. Conditions: MARK2, 5 cell line mix lysate, Kinobeads ε, ref Reinecke et al. (2023), cited from earlier work.
Test [8] relates to MARK4. The note with it: cited from earlier work.
The test system of test [9] is IRAK4. The note with it: cited from earlier work.
Test [10] deals with PAK4. The note with it: cited from earlier work.
Test [11] addresses HCK. More on the design: method as in Reinecke et al. (2023). Conditions: 5 cell line mix lysate, Kinobeads ε, ref Reinecke et al. (2023), cited from earlier work.
For test [12], the target named is AURKB. The note with it: cited from earlier work.
For test [13], the system named is TAOK2. Also on record: method as in Reinecke et al. (2023). Conditions: TAOK2, 5 cell line mix lysate, Kinobeads ε, ref Reinecke et al. (2023), cited from earlier work.
The subject of test [14] is p-sites in Dan-G cells. In words: Phosphoproteomics GEM + Elimusertib vs. GEM (non-decryptM). The test is classed as cell-based, human. How it is done: Cell culture medium was replaced 24 h after seeding. […] For time point 0, AsPC-1 cells were treated with a vehicle and lysed immediately. The final DMSO concentration in all experiments was 0.2%.
Oxidized methionine, N-terminal acetylation, and phosphorylation (STY) were set as variable modification, and cysteine carbamidomethylation was set as fixed modification. All other search parameters were kept as default, except for protein FDR which was set to 1. […] Potential contaminants and reversed hits were removed, and only peptides with unambiguously assigned phosphorylation sites with a localization probability of > 0.75 were retained. To acquire site-level quantification values, the corrected reporter ion intensities of peptides containing the same phosphosite(s) were summed up. Median centering of corrected TMT reporter channel intensities was performed. […] Channel 11 served as a vehicle for the chemodrug treatment and was not subjected to curve fitting. Instead, row-wise normalization was performed across all four TMT-batches using the medians of channels 10 and 11. […] Phosphoproteomic experiments in six additional cell lines (not dose-resolved) were median-centered within each TMT-batch, prior to row-wise normalization across all TMT-batches using a common channel filled with AsPC-1 lysate (Appendix Table S5). Two-sided t-test analysis and multiple hypothesis testing correction was performed in R using the same parameters and thresholds as described above.

In test [15] the test system is CDK2. Also on record: method as in Klaeger et al. (2017). The note with it: CDK2, 4 cell line mix lysate, Kinobeads y, ref Klaeger et al. (2017); cited from earlier work.
Setting [16] is: CHEK1, 5 cell line mix lysate, Kinobeads ε, ref Reinecke et al. (2023).
[17] abbreviates: ERN1, 5 cell line mix lysate, Kinobeads ε, ref Reinecke et al. (2023).
Where [18] appears, read: MARK4, 5 cell line mix lysate, Kinobeads ε, ref Reinecke et al. (2023).
Setting [19] is: IRAK4, 5 cell line mix lysate, Kinobeads ε, ref Reinecke et al. (2023).
The mark [20] stands for this setting: PAK4, 5 cell line mix lysate, Kinobeads ε, ref Reinecke et al. (2023).
[21] abbreviates: 5 cell line mix lysate, Kinobeads ε, ref Reinecke et al. (2023).

`CNCc1ccc(-c2cc(-c3nc(-c4ccc(S(=O)(=O)C(C)C)cc4)cnc3N)on2)cc1` [Berzosertib]: the “affinity to ATR over off-targets” value in test [1] (Berzosertib: vs. all except ACVR2, Elimusertib: vs. PIK3C2A, Ceralasertib: vs. CDK7) is above 10 fold.

As for `COc1cc(N2CCC(N3CCN(C)CC3)CC2)ccc1Nc1ncc(Cl)c(Nc2ccccc2P(C)(C)=O)n1` [Brigatinib], the concentration for a half-maximal effect (EC50) in test [2] (setting [16]) is 70.5 nM; in [3], 3460 nM; in test [4], 12.6 nM; in test [5], 88.5 nM; in [6] (setting [17]), 142 nM; in [7], 247 nM. The concentration for a half-maximal effect (EC50) in [8] (setting [18]) was 232 nM; in [9] (setting [19]), 492 nM; in [10] (setting [20]), 1190 nM; in test [11], 1500 nM; in test [12] (setting [21]), 1850 nM; in test [13] it was 3110 nM. Moreover, the pKDapp in test [2] (setting [16]) is given as 7.24; in test [3] it was 5.72; in test [4] it was 8.29; in [5], 7.17; in [6] (setting [17]), 6.94; in [7], 6.73. Also, the pKDapp in test [8] (setting [18]) is given as 6.71; in [9] (setting [19]) it was 6.42; in test [10] (setting [20]) it was 6.14; in [11], 6.11; in test [12] (setting [21]) it was 5.97; in test [13], 5.74. Moreover, the Kd in test [2] (setting [16]) is 58.2 nM; in test [2] (Kinobeads, ref Klaeger et al, 2017a, Reinecke et al, 2023a) it was 70 nM; in test [3] (read-out: KDapp), 1890 nM; in test [4] (read-out: KDapp), 5.15 nM; in test [5] (read-out: KDapp), 68.3 nM; in test [6] (ERN1, 5 cell line mix lysate, Kinobeads ε, ref Reinecke et al. (2023), read-out: KDapp), 115 nM. In addition, the Kd was 186 nM in test [7] (read-out: KDapp); 193 nM in test [8] (MARK4, 5 cell line mix lysate, Kinobeads ε, ref Reinecke et al. (2023), read-out: KDapp); 381 nM in [9] (IRAK4, 5 cell line mix lysate, Kinobeads ε, ref Reinecke et al. (2023), read-out: KDapp); 718 nM in test [10] (PAK4, 5 cell line mix lysate, Kinobeads ε, ref Reinecke et al. (2023), read-out: KDapp); 776 nM in test [11] (read-out: KDapp); 1080 nM in [12] (5 cell line mix lysate, Kinobeads ε, ref Reinecke et al. (2023), read-out: KDapp). The Kd in test [13] (read-out: KDapp) was 1830 nM.

Take `C[C@@H]1COCCN1c1cc(-c2ccnn2C)c2ccnc(-c3ccn[nH]3)c2n1` [Elimusertib]: the “Mean log2 PTM response (GEM+Elimusertib vs. GEM)” value in [14] was -1.06 and -1.18 and -1.05.

Take `Nc1ccn([C@@H]2O[C@H](CO)[C@@H](O)C2(F)F)c(=O)n1` [GEM, Gemcitabine]: the “Mean log2 TMT reporter ion intensity” value in [14] (source data 5F (p-site not named), DANG) stood at 20.35.

Take `C[C@]12O[C@H](C[C@]1(O)CO)n1c3ccccc3c3c4c(c5c6ccccc6n2c5c31)CNC4=O` [Lestaurtinib]: the EC50 in test [2] (CHEK1, 4 cell line mix lysate, Kinobeads y, ref Klaeger et al. (2017)) was […]; in test [6] (ERN1, 4 cell line mix lysate, Kinobeads y, ref Klaeger et al. (2017)) it was […]; in test [8] (MARK4, 4 cell line mix lysate, Kinobeads y, ref Klaeger et al. (2017)), […]; in [9] (IRAK4, 4 cell line mix lysate, Kinobeads y, ref Klaeger et al. (2017)) it was […]; in [10] (PAK4, 4 cell line mix lysate, Kinobeads y, ref Klaeger et al. (2017)), […]; in test [12] (4 cell line mix lysate, Kinobeads y, ref Klaeger et al. (2017)), […]. Further, in test [15], the concentration giving a half-maximal response (EC50) was […].

Regarding `Nc1nn2cc(F)cnc2c1C(=O)Nc1cncc(F)c1N1CCC(C(=O)N2CCN(C3COC3)CC2)CC1` [Gartisertib], the Kd in [1] (AsPC-1 lysate, read-out: KDapp) amounted to 318 nM.
